Source: patent US20240279215A1 (Cytokinetics, Incorporated, priority 2022, published 2024)

Target: human NAMPT (Homo sapiens (Human), UniProt P43490)
Assay: NMN fluorescence biochemical assay (human recombinant NAMPT enzyme assay)
Outline: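 Activation of recombinant human NAMPT (6 nM) was tested with 2.5 mM ATP, 20 μM PRPP and 150 μM nicotinamide in 50 mM HEPES pH 7.2 for 60 min at ambient temperature. NMN was derivatized with acetophenone/KOH/formic acid and read by fluorescence (355/460 nm) after 40 min.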

Sequence of human NAMPT (P43490 whole entry): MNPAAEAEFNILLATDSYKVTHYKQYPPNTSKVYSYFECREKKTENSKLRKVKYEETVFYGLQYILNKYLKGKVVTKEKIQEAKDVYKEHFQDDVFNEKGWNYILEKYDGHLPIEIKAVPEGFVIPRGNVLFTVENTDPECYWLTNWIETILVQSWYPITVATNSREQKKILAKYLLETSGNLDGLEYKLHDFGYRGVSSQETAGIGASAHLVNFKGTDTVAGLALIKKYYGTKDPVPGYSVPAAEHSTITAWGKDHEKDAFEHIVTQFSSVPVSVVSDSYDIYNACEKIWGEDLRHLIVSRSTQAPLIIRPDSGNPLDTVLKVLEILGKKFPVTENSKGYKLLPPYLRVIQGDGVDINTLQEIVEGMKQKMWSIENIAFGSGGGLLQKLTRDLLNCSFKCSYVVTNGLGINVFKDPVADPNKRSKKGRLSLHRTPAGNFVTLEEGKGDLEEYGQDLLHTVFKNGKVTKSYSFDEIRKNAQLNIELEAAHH

Row | AC1.4 Human | EC50 | Compound
1 | 1.22 µM | 5.21 µM | O=C(Nc1ccc(CNC(=O)c2c(F)cncc2F)cc1)OCc1ccc(Cl)cc1 [Compound 147, (4-chlorophenyl)methyl N-(4-{[15.2 (3,5-difluoropyridin-4-yl)formamido]methyl}phenyl)carbamate]
2 | 0.57 µM | 2.62 µM | COc1ccc(COC(=O)Nc2ccc(NS(=O)(=O)Cc3ccccc3)cc2)cc1 [Compound 61, 4-methoxybenzyl (4-((phenylmethyl)sulfonamido)phenyl)carbamate]
3 | 0.76 µM | 23.6 µM | C[C@H](NC(=O)C1CCC(F)(F)C1)c1ccc(NC(=O)OCc2cnco2)cc1 (stereo partly drawn) [Compound 97, 1,3-oxazol-5-ylmethyl N-{4-[(1S)-1-[(3,3-difluorocyclopentyl)formamido]ethyl]phenyl}carbamate]
4 | 1.23 µM | 11.5 µM | COC(=O)N1CCC(c2ccc(NC(=O)OCc3cnco3)cc2)CC1 [Compound 148, methyl 4-(4-(((oxazol-5-ylmethoxy)carbonyl)amino)phenyl)piperidine-1-carboxylate]
5 | 2.92 µM | 39.1 µM | COc1ccc(COC(=O)Nc2ccc([C@H]3CNC(=O)CN3C)cc2)cc1 [Compound 263, 4-methoxybenzyl (S)-(4-(1-methyl-5-oxopiperazin-2-yl)phenyl)carbamate]
6 | 0.84 µM | 41.5 µM | O=C(Nc1ccc([C@@H]2CCCN(C3COC3)C2)cc1)OCc1cnco1 [Compound 380, oxazol-5-ylmethyl (S)-(4-(1-(oxetan-3-yl)piperidin-3-yl)phenyl)carbamate]
7 | 1.32 µM | 9.11 µM | Cc1ncc(C(=O)NCc2ccc(NC(=O)OCc3ccc(Cl)cc3)cc2)o1 [Compound 157, (4-chlorophenyl)methyl N-(4-{[(2-methyl-1,3-oxazol-5-yl)formamido]methyl}phenyl)carbamate]
8 | 0.82 µM | 4.14 µM | CCn1nccc1C(=O)N[C@@H](C)c1ccc(NC(=O)OCc2ccc(Cl)cc2)cc1 [Compound 101, (4-chlorophenyl)methyl N-{4-[(1S)-1-[(2-ethylpyrazol-3-yl)formamido]ethyl]phenyl}carbamate]
9 | 0.86 µM | 26.4 µM | O=C(Nc1ccc(Cc2ccncc2)cc1)OCc1ccc(CO)cc1 [Compound 106, 4-(hydroxymethyl)benzyl (4-(pyridin-4-ylmethyl)phenyl)carbamate]
10 | 0.32 µM | 10.1 µM | C[C@H](NC(=O)C1CC2(C1)CC(F)(F)C2)c1ccc(NC(=O)OCc2cnco2)cc1 [Compound 22, 1,3-oxazol-5-ylmethyl N-{4-[(1S)-1-({6,6-difluorospiro[3.3]heptan-2-yl}formamido)ethyl]phenyl}carbamate]
11 | 0.74 µM | 3.8 µM | CN(Cc1ccc(NC(=O)OCc2ccc(Cl)cc2)cc1)C(=O)c1ccn[nH]1 [Compound 91, (4-chlorophenyl)methyl N-{4-[(N-methyl-1-2H-pyrazol-3-ylformamido)methyl]phenyl}carbamate]
12 | 1.82 µM | 24.5 µM | O=C(Nc1ccc(CC(=O)N2CCC[C@H]2CO)cc1)OCc1ccc(Cl)cc1 [Compound 202, (4-chlorophenyl)methyl N-(4-{2-[(2S)-2-(hydroxymethyl)pyrrolidin-1-yl]-2-oxoethyl}phenyl)carbamate]
13 | 1.37 µM | 0.68 µM | CC(C)c1ccc(C(=O)N[C@@H](C)c2ccc(NC(=O)OCc3ccc(Cl)cc3)cc2)cn1 [Compound 163, (4-chlorophenyl)methyl N-{4-[(1S)-1-[(6-isopropylpyridin-3-yl)formamido]ethyl]phenyl}carbamate]
14 | 0.44 µM | 5.66 µM | COC1CCN(C(=O)N(C)Cc2ccc(NC(=O)OCc3ccc(Cl)cc3)cc2)CC1 [Compound 42, 4-chlorobenzyl (4-((4-methoxy-N-methylpiperidine-1-carboxamido)methyl)phenyl)carbamate]
15 | 0.81 µM | 1.22 µM | COc1ccc(C(=O)N[C@@H](C)c2ccc(NC(=O)OCc3ccc(Cl)cc3)cc2)cn1 [Compound 100, (4-chlorophenyl)methyl N-{4-[(1S)-1-[(6-methoxypyridin-3-yl)formamido]ethyl]phenyl}carbamate]
16 | 7.41 µM | 13.3 µM | Cc1ccc(CNC(=O)Cc2ccc(NC(=O)OCc3ccc(Cl)cc3)cc2)cn1 [Compound 323, (4-chlorophenyl)methyl N-[4-({[(6-methylpyridin-3-yl)methyl]carbamoyl}methyl)phenyl]carbamate]

Row | AC1.4 Human | EC50 | Compound
17 | 13.49 µM | 20.3 µM | Cn1nc(C(F)F)cc1C(=O)NCc1ccc(NC(=O)OCc2ccc(Cl)cc2)cc1 [Compound 345, (4-chlorophenyl)methyl N-[4-({[5-(difluoromethyl)-2-methylpyrazol-3-yl]formamido}methyl)phenyl]carbamate]
18 | 0.69 µM | 37.4 µM | O=C(Nc1ccc(C2CCN(CC(F)(F)F)CC2)cc1)OCc1cnco1 [Compound 88, 1,3-oxazol-5-ylmethyl N-{4-[1-(2,2,2-trifluoroethyl)piperidin-4-yl]phenyl}]
19 | 0.89 µM | 10.8 µM | CS(=O)(=O)N1CCN(Cc2ccc(NC(=O)OCc3ccc(Cl)cc3)cc2)CC1 [Compound 107, (4-chlorophenyl)methyl N-{4-[(4-methanesulfonylpiperazin-1-yl)methyl]phenyl}carbamate]
20 | 1.96 µM | 9.59 µM | Cc1ccc(C(=O)NCc2ccc(NC(=O)OCc3ccc(Cl)cc3)cc2)nc1 [Compound 214, (4-chlorophenyl)methyl N-(4-{[(5-methylpyridin-2-yl)formamido]methyl}phenyl)carbamate]
21 | 3.04 µM | 36.5 µM | Cc1cnc(C(=O)N[C@@H](C)c2ccc(NC(=O)OCc3ccc(Cl)cc3)cc2)o1 [Compound 267, 4-chlorobenzyl (S)-(4-(1-(5-methyloxazole-2-carboxamido)ethyl)phenyl)carbamate]
22 | 0.64 µM | 26.3 µM | C[C@H](NC(=O)C1CC(F)(F)C1)c1ccc(NC(=O)OCc2cnco2)cc1 [Compound 75, 1,3-oxazol-5-ylmethyl N-{4-[(1S)-1-[(3,3-difluorocyclobutyl)formamido]ethyl]phenyl}carbamate]
23 | 0.13 µM | 10.2 µM | CS(=O)(=O)N1CC2(CC(c3ccc(NC(=O)OCc4cnco4)cc3F)C2)C1 [Compound 388, oxazol-5-ylmethyl (3-fluoro-4-(2-(methylsulfonyl)-2-azaspiro[3.3]heptan-6-yl)phenyl)carbamate]
24 | 0.11 µM | 19.8 µM | CCC(=O)N1CCC(c2ccc(NC(=O)OCc3cnco3)cc2)CC1 [Compound 430, oxazol-5-ylmethyl (4-(1-propionylpiperidin-4-yl)phenyl)carbamate]
25 | 10.65 µM | 45.6 µM | Cc1ocnc1C(=O)N(C)Cc1ccc(NC(=O)OCc2ccc(Cl)cc2)cc1 [Compound 340, (4-chlorophenyl)methyl N-(4-{[N-methyl-1-(5-methyl-1,3-oxazol-4-yl)formamido]methyl}phenyl)carbamate]
26 | 8.67 µM | 11.9 µM | Cc1ccc(Cc2ccc(NC(=O)OCc3ccc(F)cc3)cc2)cn1 [Compound 331, 4-fluorobenzyl (4-((6-methylpyridin-3-yl)methyl)phenyl)carbamate]
27 | 1.49 µM | 38.3 µM | CC(C)(O)CN1CCN(Cc2ccc(NC(=O)OCc3ccc(Cl)cc3)cc2)CC1 [Compound 177, 4-chlorobenzyl (4-((4-(2-hydroxy-2-methylpropyl)piperazin-1-yl)methyl)phenyl)carbamate]
28 | 0.42 µM | 43.6 µM | O=C(Nc1ccc(CC2CCN(C(=O)N3CC(F)(F)C3)CC2)cc1)OCc1cnco1 [Compound 463, oxazol-5-ylmethyl (4-((1-(3,3-difluoroazetidine-1-carbonyl)piperidin-4-yl)methyl)phenyl)carbamate]
29 | 0.48 µM | 2.58 µM | Cc1noc(C(=O)N[C@@H](C)c2ccc(NC(=O)OCc3ccc(Cl)cc3)cc2)c1C [Compound 46, 4-chlorobenzyl (S)-(4-(1-(3,4-dimethylisoxazole-5-carboxamido)ethyl)phenyl)carbamate]
30 | 0.58 µM | 37.1 µM | Cc1ccc(Cc2ccc(NC(=O)OCc3cn[nH]c3)cc2)cn1 [Compound 65, (1H-pyrazol-4-yl)methyl (4-((6-methylpyridin-3-yl)methyl)phenyl)carbamate]
31 | 0.05 µM | 4.6 µM | CC(C)C(=O)N1CCC2(CC(c3ccc(NC(=O)OCc4cnco4)cc3F)C2)C1 (single isomer, unassigned) [Compound 362]
32 | 0.16 µM | 11.2 µM | CNS(=O)(=O)N1CCC(Cc2ccc(NC(=O)OCc3cnco3)cc2)CC1 [Compound 10, oxazol-5-ylmethyl (4-((1-(N-methylsulfamoyl)piperidin-4-yl)methyl)phenyl)carbamate]

Row | Compound | AC1.4 Human | EC50
33 | O=C(Nc1ccc(CC2C3CC2CN(C2COC2)C3)cc1)OCc1cnco1 (stereo not shown) [Compound 439, oxazol-5-ylmethyl (4-((3-(oxetan-3-yl)-3-azabicyclo[3.1.1]heptan-6-yl)methyl)phenyl)carbamate] | 1.47 µM | 25.6 µM
34 | CN(C)C(=O)N1CC2CC(C1)C2Cc1ccc(NC(=O)OCc2cnco2)cc1 (stereo not shown) [Compound 436, oxazol-5-ylmethyl (4-((3-(dimethylcarbamoyl)-3-azabicyclo[3.1.1]heptan-6-yl)methyl)phenyl)carbamate] | 0.08 µM | 6.04 µM
35 | O=C(Nc1ccc(CC2CC3CCC(C2)N3S(=O)(=O)N2CCC2)cc1)OCc1cnco1 (stereo not shown) [Compound 393, oxazol-5-ylmethyl (4-((8-(azetidin-1-ylsulfonyl)-8-azabicyclo[3.2.1]octan-3-yl)methyl)phenyl)carbamate] | 0.13 µM | 3.84 µM
